Data published in patent US20170298051A1, “ACTIVATOR OF ADIPONECTIN RECEPTOR” (THE UNIVERSITY OF TOKYO, priority 2013, published 2017).

Assays:
AdipoR1 [1] = target: T1, AdipoR1 (Homo sapiens, UniProt Q96A54); assay: Measurement of AMPK phosphorylation ability (Assay 1), HEK 293T cells, Western blotting; format: cell-based; design: HEK 293T cells (ATCC; CRL-3216, medium; host or cells: HEK 293T; conditions: 10 minutes
T1 sequence (Q96A54 1-375): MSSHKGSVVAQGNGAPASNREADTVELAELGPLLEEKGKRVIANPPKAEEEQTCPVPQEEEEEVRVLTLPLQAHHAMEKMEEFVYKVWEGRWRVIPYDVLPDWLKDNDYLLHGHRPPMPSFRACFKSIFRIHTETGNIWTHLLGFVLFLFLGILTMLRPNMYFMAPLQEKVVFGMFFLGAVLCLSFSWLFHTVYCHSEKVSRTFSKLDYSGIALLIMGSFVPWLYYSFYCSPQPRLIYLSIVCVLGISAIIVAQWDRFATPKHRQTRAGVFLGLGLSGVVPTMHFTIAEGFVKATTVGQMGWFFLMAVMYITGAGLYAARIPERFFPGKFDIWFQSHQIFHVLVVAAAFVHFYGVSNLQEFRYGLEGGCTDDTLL
Experimental: The AMPK phosphorylation ability of the respective compounds according to the present invention was measured by using differentiated C2C12 cells or HEK 293T cells.
HEK 293T cells (ATCC; CRL-3216, medium; DMEM, Fetal Bovine Serum (FBS)) were cultured in a 12- or 24-well plate until they reached 100% confluency (37° C., 5% CO2).
After starvation, a test compound listed in Tables 10 and 11 (concentration: 25 μM, 50 μM) was added thereto, and after 10 minutes, the medium was discarded and the plate was frozen with liquid nitrogen.
To the 12- or 24-well cell plate which had been frozen was added 100 or 150 μL of Cell lysis buffer pH 7.4 (50 mM HEPES (pH 7.4), 2 mM sodium orthovanadate, 10 mM sodium pyrophosphate, 10 mM NaF, 2 mM EDTA, 2 mM EGTA, 0.1% (v/v) NP-40, 0.2 mM PMSF), and the cells were scraped off with a cell scraper, suspended and transferred into a micro centrifugal tube. And then, the cells were ultrasonically crushed (1 second×3 times) with a sonicator. Centrifugation was performed at 4° C. at 15,000 rpm for 15 minutes, and the supernatant was recovered into a new tube.
To 100 μL of the supernatant was added 25 μL of 5× sample buffer (280 mM Tris-HCl (pH 6.9), 40% glycerol, 10% (3-mercaptoethanol, 13% SDS, a small amount of bromophenol blue) and mixed together. The rest of the supernatant was used for protein quantification, and the protein concentrations were uniformed by adding 1× sample buffer depending on the concentration of each sample.
An electrophoresis chamber was filled with 1× SDS buffer (25 mM Tris-HCl, 250 mM glycine, 0.1% SDS), and the sample was applied to a well of polyacrylamide gel. Electrophoresis was performed until the bromophenol blue in the sample reached to the bottom of the gel.
A filter paper was soaked in 1× Transfer buffer sufficiently, above which the PVDF membrane and the gel after electrophoresis were stacked in this order, and thereabove a filter paper which had been soaked in 1× Transfer buffer sufficiently was further stacked, from which an air was removed and the resultant was set in semi-dry type transfer apparatus and transferred (7V, 35 minutes).
An unnecessary portion of the blotted membrane was cutoff, and the rest was immediately soaked in blocking buffer (5% skimmed milk in Rinse buffer), and shaken at room temperature at 40 rpm for 3 hours.
After blocking, the membrane was transferred into Rinse buffer, and washed at room temperature for 10 minutes while shaking. The membrane was soaked in a primary antibody solution (AMPK alpha Antibody (Cell signaling; #2532) 1/1,000 in Rinse buffer, Phospho-AMPK alpha (Thr172) (40H9) antibody (Cell signaling; #2535) 1/1,000 in Rinse buffer), and shaken at 4° C. at 40 rpm overnight.
The membrane was soaked in a secondary antibody solution (goat anti-rabbit IgG-HRP Antibody (Santa Cruz; sc-2030) 1/2,000 in Rinse buffer), and shaken at room temperature at 40 rpm for 1 hour.
After the membrane was washed for 45 minutes in the same way as after the primary antibody reaction, the membrane was soaked in a chemiluminescent reaction solution (ECL Western Blotting Detection Reagents, GE Healthcare) for about 1 minute. An excess of the reaction solution was removed, and then the membranes were arranged on a transparent film and sandwiched with it, with which an X-ray film was exposed in a darkroom (for about several seconds to 60 seconds) to develop the film.
The X-ray film was scanned to take the image, for which the band was measured by using the image analysis software “Image J” to determine the respective amounts of pAMPK and AMPK.

AdipoR1 [2] = target: T1, AdipoR1; assay: Measurement of AMPK phosphorylation ability (Assay 2), HEK 293T cells with unrelated or AdipoR1 siRNA; format: cell-based; design: HEK 293T cells (ATCC; CRL-3216, medium; host or cells: HEK 293T
Experimental: HEK 293T cells (medium; DMEM, 10% FBS) were cultured in a 24-well plate until they reached 60% confluency (37° C., 5% CO2).
First, 1 μL of Lipofectamine RNAiMAX and 50 μL of OPTI-MEM were mixed, and then 5 μM siRNA (sense siRNA sequence: […]tt (SEQ ID NO: 1)) and 50 μL of OPTI-MEM were mixed and the resultants were left to stand at room temperature for 5 minutes. And then, the 1 μL Lipofectamine RNAiMAX/50 μL OPTI-MEM and the 5 μM siRNA/50 μL OPTI-MEM were mixed, and the resultant was left to stand at room temperature for 10 minutes, which was added to the cells.
After 5 minutes, the medium (DMEM, 10% FBS) was replaced, and after starvation on the next day, a test compound listed in Tables 10 and 11 was added thereto. After 10 minutes, the medium was discarded and the plate was frozen with liquid nitrogen.
The respective amounts of pAMPK and AMPK were determined in the same way as in the above Assay 1.

SMILES	pAMPK/AMPK (%) (AdipoR1 [1]; 25 μM)	pAMPK/AMPK (%) (AdipoR1 [1]; 50 μM)	pAMPK/AMPK (ratio) siRNA, AdipoR1 siRNA (AdipoR1 [2])	pAMPK/AMPK (ratio) siRNA, unrelated siRNA (AdipoR1 [2])
CC(C)(C)c1ccc(C(=O)NCCC(=O)N2CCN(Cc3cccc4cccnc34)CC2)cc1 [Compound 53]	91.44%	81.80%	2.04 ratio	2.26 ratio
O=C(NCCC(=O)N1CCN(Cc2cccc(OC(F)(F)F)c2)CC1)c1ccc([N+](=O)[O-])cc1 [Compound 69]	80.04%	100.79%	4.03 ratio	5.28 ratio
COc1ccc(CN2CCC(NC(=O)COc3ccc(C(F)(F)F)cc3)CC2)cc1F [Compound 35]	80.77%	83.74%	2.01 ratio	3.38 ratio
COc1cc(C(C)=O)ccc1OCC(=O)NC1CCN(Cc2ccc(Cl)c(Cl)c2)CC1 [Compound 15]	88.71%	88.18%	3.49 ratio	3.27 ratio
CC(C)c1ccc(CN2CCN(C(=O)CCNC(=O)c3ccc([N+](=O)[O-])cc3)CC2)cc1 [Compound 64]	80.29%	83.01%	3.57 ratio	4.86 ratio
NC(=O)c1ccc(OCC(=O)NC2CCN(Cc3ccc(Br)cc3)CC2)cc1 [Compound 21]	81.11%	83.12%	1.92 ratio	2.34 ratio
O=C(COc1ccc(F)cc1)NC1CCN(Cc2ccc(Cl)c(Cl)c2)CC1 [Compound 32]	88.09%	91.40%	4.14 ratio	3.38 ratio
O=C(NCCC(=O)N1CCN(Cc2cccc(O)c2)CC1)c1ccc2ccccc2c1 [Compound 70]	84.71%	88.96%	2.46 ratio	2.43 ratio
O=C(COc1ccc(Cl)cc1)NC1CCN(Cc2ccc(Cl)c(Cl)c2)CC1 [Compound 33]	106.31%	84.10%	2.63 ratio	2.88 ratio
CC1CN(Cc2ccccc2)CCC1NC(=O)COc1ccc(N2CCCC2=O)cc1 (centres unmarked) [Compound 26]	55.06%	56.65%		
Cc1ccc(C(=O)N2CCC(NC(=O)COc3ccc(C4SCCCS4)cc3)CC2)cc1 [Compound 29]	72.45%	74.42%		

Continued, values first:

pAMPK/AMPK (%) (AdipoR1 [1]; 25 μM)	pAMPK/AMPK (%) (AdipoR1 [1]; 50 μM)	pAMPK/AMPK (ratio) siRNA, AdipoR1 siRNA (AdipoR1 [2])	pAMPK/AMPK (ratio) siRNA, unrelated siRNA (AdipoR1 [2])	SMILES
80.42%	84.19%	2.56 ratio	2.52 ratio	O=C(COc1ccc(Oc2ccccc2)cc1)NC1CCN(Cc2ccccc2)CC1 [Compound 36]
80.31%	80.39%	2.44 ratio	2.78 ratio	CC(c1ccccc1)N1CCC(NC(=O)COc2ccc(Oc3ccccn3)cc2)CC1 (centres unmarked) [Compound 47]
80.64%	80.50%	2.01 ratio	2.32 ratio	O=C(COc1ccc(C(F)(F)F)cc1)NC1CCN(C(=O)c2ccccc2F)CC1 [Compound 34]
80.04%	85.28%	3.16 ratio	3.42 ratio	O=C(COc1ccc(Oc2ccccn2)cc1)NC1CCN(Cc2ccc(F)cc2)CC1 [Compound 48]
83.12%	102.94%	3.75 ratio	2.58 ratio	O=C(COc1ccc(C(=O)c2ccc(Cl)cc2)cc1)NC1CCN(Cc2ccccc2)CC1 [Compound 11]
80.60%	80.60%	2.61 ratio	3.17 ratio	CCc1ccc(OCC(=O)NC2CCN(C(C)c3ccccc3)CC2)cc1 (centres unmarked) [Compound 31]
112.70%	87.54%	2.43 ratio	2.67 ratio	CCOc1ccc(OCC(=O)NC2CCN(Cc3ccc(Cl)c(Cl)c3)CC2)cc1 [Compound 38]
83.83%	80.12%	2.69 ratio	3.11 ratio	COc1ccc(OCC(=O)NC2CCN(Cc3ccc(Cl)c(Cl)c3)CC2)cc1 [Compound 37]
106.36%	82.93%	2.47 ratio	2.51 ratio	O=C(COc1ccc(C(=O)c2ccccc2)cc1)NC1CCN(Cc2ccc(Cl)cc2)CC1 [Compound 12]
122.70%	89.75%	2.35 ratio	2.49 ratio	Cc1ccc(OCC(=O)NC2CCN(Cc3ccc(Cl)c(Cl)c3)CC2)cc1 [Compound 30]
80.93%	80.11%	2.74 ratio	2.58 ratio	Cc1ccccc1CN1CCC(NC(=O)COc2ccc(Oc3ccccn3)cc2)CC1 [Compound 46]
72.14%	78.77%			CCCOc1ccc(OCC(=O)NC2CCN(C(=O)c3ccc(OCC)cc3)CC2)cc1 [Compound 44]
69.97%	89.62%			CCCOc1ccc(OCC(=O)NC2CCN(C(=O)c3ccc(C)cc3)CC2)cc1 [Compound 42]
61.45%	67.26%			CCOc1ccc(C(=O)N2CCC(NC(=O)COc3ccc([N+](=O)[O-])cc3)CC2)cc1 [Compound 22]
47.44%	45.44%			COc1ccccc1CN1CCC(NC(=O)COc2ccc(C)cc2)CC1 [Compound 4]
